Experimental data: patent publication US12150938B2, “Biomarker of polycystic kidney disease and uses thereof” (Genzyme Corporation, priority 2015, dated 2024)

Tests used:
AMBP protein = assay: Immunoblot of AMBP protein levels in urine and kidney samples of treated jck mice; type: in vivo, mouse
Experimental: Kidney samples were homogenized in RIPA buffer (Boston BioProducts) including 1 mM DTT, 5 mM EDTA, 2 mM NaF, 1 mM Na3VO4 (all supplied by Sigma-Aldrich), Pefabloc SC and Complete Proteinase Inhibitor Cocktail (both from Roche Applied Science). Protein concentrations were determined by BCA protein assay (Pierce). Urine samples were briefly centrifuged at 3000 RPM for 10 minutes at 4° C. (Beckman Coulter Allegra 6A) to remove cellular debris. An equal volume of urine was diluted in 5× Laemmli Buffer (15% SDS, 0.575 M sucrose, 0.325 M Tris, pH 6.8, 5% beta-mercaptoethanol and 0.002% bromophenol blue). Equal amounts of protein and urine were loaded onto 4-14% NuPage Bis-Tris gels following the manufacturer's protocols (Invitrogen). Membranes were blocked with 5% nonfat milk in Tris-buffered saline (TBS) including 0.1% Tween-20 and incubated with primary antibodies overnight at 4° C. Primary antibodies were detected with horseradish peroxidase-labeled secondary antibodies (Promega). Immunoreactive proteins were detected by enhanced chemiluminescence (GE Healthcare). Primary antibodies to the following proteins were used: α-1-microglobulin and β-actin (Abcam), and GAPDH (US Biological).
Roscovitine was administered ad libitum to jck mice from 26 to 64 days of age by mixing in powdered 5053 diet at 0.2%. The GCSi (Genz-123346) was administered ad libitum to jck mice from day 26 to day 64 after birth by mixing in powdered 5053 diet at 0.225% (Natoli et al., Nature Med. 16:788-792, 2010). Chronic and pulse treatment with S-CR8 was performed by daily intraperitoneal injection with 24 mg/kg starting from day 26 after birth. Urine was collected for 24 hours consecutively (at day 26, 33, 41, 48, and 64 after birth) over a 5-week period from animals with a range of disease severity measured by kidney to body weight ratio (K/BW) and cystic percentage (C %).
A second set of experiments was performed in jck mice to determine a second CDK inhibitor, S-CR8, would decrease both AMBP levels and kidney volume. In these experiments, the jck animals were administered one of the following treatment schedules starting at day 26 after birth: (A) daily intraperitoneal injection with 24 mg/kg S-CR8 for five weeks; (B) daily intraperitoneal injection with 24 mg/kg S-CR8 for three weeks, and two weeks with no treatment; and (D) daily intraperitoneal injection with 24 mg/kg S-CR8 for one week and four weeks with no treatment (FIG. 18). As a control, jck animals were administered a vehicle between day 26 to day 64 after birth.

jck mice = assay: Treatment of jck mice (PKD model): kidney volume / cyst volume; type: in vivo, mouse
Experimental: C57BL/6J jck/+ mice were maintained for mating. Cystic jck/jck mice were genotyped as previously described (Smith et al., J. Am. Soc. Nephrol. 17:2821-2831, 2006). […] conditional knockout mice were generated as described previously (Natoli et al., Nature Med. 16:788-792, 2010). The […] gene was deleted by inducing the Cre recombinase activity with tamoxifen delivered in sunflower oil (Sigma-Aldrich, St. Louis, MO), on postnatal day 1 with 100 mg/kg.
A jck mouse model of PKD (Smith et al., J. Am. Soc. Nephrol. 17:2821-2831, 2006) was used to assess the expression of AMBP. Jck mice are characterized by development of moderately progressive renal cystic disease. Kidneys from the jck mouse model are enlarged by day 26 after birth and have multiple cysts. […] Renal function in jck mice, as measured by serum creatinine and blood urea nitrogen, progressively elevates over time. […] Cysts originating from the proximal tubules are not detected in jck mice (Smith et al., J. Am. Soc. Nephrol. 17:2821-2831, 2006).
Roscovitine was administered ad libitum to jck mice from 26 to 64 days of age by mixing in powdered 5053 diet at 0.2%. […] Urine was collected for 24 hours consecutively (at day 26, 33, 41, 48, and 64 after birth) over a 5-week period from animals with a range of disease severity measured by kidney to body weight ratio (K/BW) and cystic percentage (C %). […]

[1] = 0.225% in diet day 26 to day 64 after birth, day 64, vs vehicle (FIG. 22)
[2] = oral 0.2% in feed day 26 to day 64 after birth, day 64, vs vehicle (FIG. 17)

In the case of `CCCCCCCCC(=O)N[C@H](CN1CCCC1)[C@H](O)c1ccc2c(c1)OCCO2` [Genz-123346], the “AMBP levels in kidney tissue samples” value (AMBP protein; [1]) is reported as “decrease” and the “AMBP levels in urine samples” value (AMBP protein; [1]) is reported as “decrease”.
In the case of `CC[C@@H](CO)Nc1nc(NCc2ccc(-c3ccccn3)cc2)c2ncn(C(C)C)c2n1` [S-CR8], the “urine AMBP protein levels” value (AMBP protein; daily intraperitoneal 24 mg/kg from day 26, all tested schedules (A, B, D), urine at day 64, vs vehicle (FIGS. 20 and 21)) is reported as “decrease” and the “cyst volume (cystic volume as percentage of body weight, FIG. 19)” value (jck mice; daily intraperitoneal 24 mg/kg from day 26, all tested schedules (A 5 weeks, B 3 weeks, D 1 week), vs vehicle) is reported as “decrease”.
For `CC[C@H](CO)Nc1nc(NCc2ccccc2)c2ncn(C(C)C)c2n1` [roscovitine], the “AMBP protein levels in kidney samples” value (AMBP protein; [2]) was “decrease”, the “AMBP protein levels in urine” value (AMBP protein; [2]) was “decrease” and the “kidney volume (kidney to body weight, FIG. 16)” value (jck mice; oral 0.2% in feed day 26 to day 64 after birth, measured at day 64, vs vehicle) was “decrease”.
